Data on 2 compounds can be found in patent US20240315952A1, “PERSONAL CARE COMPOSITION” (Conopco, Inc., d/b/a UNILEVER, priority 2020, published 2024).

The assay has as its system IL-1α. As to the kind of experiment: IL-1α expression in EpiKutis living skin equivalent (LSE) stressed with 1% SQOOH, human immunoassay kit. It counts as cell-based. Particulars: levels are raw material wt %; for IL-1α level: EpiKutis 3D reconstructed human epidermis, sample applied topically, then 3 μL of 1% SQOOH, after 72 hours; for Inhibition: inhibition of IL-1α vs 1% SQOOH control, EpiKutis LSE, 72 hours. On the procedure:
EpiKutis® living skin equivalent (LSE), is a 3D reconstructed human epidermis model with Chinese human keratinocytes through air-liquid interface culture in a defined serum free medium, supplied by supplied by Biocell (Xi'an, China). Squalene monohydroperoxide (SQOOH), a stress surrogate, was prepared in house, by subjecting squalene to solar irradiation in the presence of a sensitizer.
The SQOOH was diluted using squalene. The moringa oil was dissolved in DMSO (dimethyl sulfoxide) at a concentration of 100 mM to form a stock solution. The samples in Table 1 were prepared accordingly by diluting the materials except moringa oil and/or stock solution with PBS (phosphate-buffered saline) to the desired levels as indicated in Table 1 before use for further experiment.
The sample was applied topically to the LSE followed by application of 3 μL of 1% SQOOH. The medium was then refreshed with interval of 24 hours. After 72 hours, the tissues were collected for histology and to test the extent of viability. The IL-1a expression was evaluated using a human immunoassay kit from R&D systems (Cat. DLA 50) and tested following the manufacturer's instructions.

What is called Inhibition is the change of the read-out against control, counted positive when it falls. As for `NC(=O)c1cccnc1` [Sample 6, Niacinamide], the IL-1α level was found to be 5.8 ± 0.60 pg/mL and the Inhibition is on record as 33.57%.

As to `NC(=O)c1cccnc1` [Sample 5, Niacinamide], the IL-1α level came to 6.6 ± 0.63 pg/mL and the Inhibition amounted to 25.33%.
